Assays:
[1] = tested on: Aβ42; assay: Method 1: Aβ42 sandwich ELISA in supernatant of SKNBE2 cells carrying APP 695-wild type (Tables 7a, 7b); assay type: cell-based; conditions: Table 7b, averaged IC50, non-linear regression of percentage of control vs log concentration, 4-parameter equation
Protocol: (§1) Screening was carried out using SKNBE2 cells carrying the APP 695-wild type, grown in Dulbecco's Modified Eagle's Medium/Nutrient mixture F-12 (DMEM/NUT-mix F-12) (HAM) provided by Gibco (cat no. 31330-38) containing 5% Serum/Fe supplemented with 1% non-essential amino acids. Cells were grown to near confluency.
(§2) The screening was performed using the assay as described in Citron et al (1997) Nature Medicine 3: 67. Briefly, cells were plated in a 96-well plate at about 10^5 cells/ml one day prior to addition of compounds. Compounds were added to the cells in Ultraculture (Lonza, BE12-725F) supplemented with 1% glutamine (Invitrogen, 25030-024) for 18 Hours. The media were assayed by two sandwich ELISAs, for Aβ42 and Aβtotal. Toxicity of the compounds was assayed by WST-1 cell proliferation reagent (Roche, 1 644 807) according to the manufacturer's protocol.
To quantify the amount of Aβ42 in the cell supernatant, commercially available Enzyme-Linked-Immunosorbent-Assay (ELISA) kits were used (Innotest® β-Amyloid(1-42), Innogenetics N.V., Ghent, Belgium). The Aβ42 ELISA was performed essentially according to the manufacturer's protocol. Briefly, the standards (dilutions of synthetic Aβ1-42) were prepared in polypropylene Eppendorf with final concentrations of 8000 down to 3.9 pg/ml (½ dilution step). Samples, standards and blanks (100 μl) were added to the anti-Aβ42-coated plate supplied with the kit (the capture antibody selectively recognizes the C-terminal end of the antigen). The plate was allowed to incubate 3 H at 25° C. in order to allow formation of the antibody-amyloid complex. Following this incubation and subsequent wash steps a selective anti-Aβ-antibody conjugate (biotinylated 3D6) was added and incubated for a minimum of 1 Hour in order to allow formation of the antibody-Amyloid-antibody-complex. After incubation and appropriate wash steps, a Streptavidine-Peroxidase-Conjugate was added, followed 30 minutes later by an addition of 3,3′,5,5′-tetramethylbenzidine (TMB)/peroxide mixture, resulting in the conversion of the substrate into a coloured product. This reaction was stopped by the addition of sulfuric acid (0.9 N) and the colour intensity was measured by means of photometry with an ELISA-reader with a 450 nm filter.
(§3) To obtain the values reported in Table 7a, the sigmoidal dose response curves were analysed by computerised curve-fitting, with percent of inhibition plotted against compound concentration. A 4-parameter equation (model 205) in XLfit was used to determine the IC50. The top and the bottom of the curve were fixed to 100 and 0, respectively, and the hill slope was fixed to 1. The IC50 represents the concentration of a compound that is required for inhibiting a biological effect by 50% (Here, it is the concentration where Aβ peptide level is reduced by 50%).
(§4) To obtain the values reported in Table 7b, the data were calculated as percentage of the maximum amount of amyloid Beta 42 measured in the absence of the test compound. The sigmoidal dose response curves were analyzed using non-linear regression analysis with percentage of the control plotted against the log concentration of the compound. A 4-parameter equation was used to determine the IC50. The values reported in Table 7b are averaged IC50 values.

[2] = tested on: Aβtotal; assay: Method 1: Aβtotal sandwich ELISA in supernatant of SKNBE2 cells carrying APP 695-wild type (Tables 7a, 7b); assay type: cell-based; conditions: Table 7b, averaged IC50, non-linear regression of percentage of control vs log concentration, 4-parameter equation
Protocol: as §1, §2
To quantify the amount of Aβtotal in the cell supernatant, samples and standards were added to a 6E10-coated plate. The plate was allowed to incubate overnight at 4° C. in order to allow formation of the antibody-amyloid complex. Following this incubation and subsequent wash steps a selective anti-Aβ-antibody conjugate (biotinylated 4G8) was added and incubated for a minimum of 1 Hour in order to allow formation of the antibody-Amyloid-antibody-complex. After incubation and appropriate wash steps, a Streptavidine-Peroxidase-Conjugate was added, followed 30 minutes later by an addition of Quanta Blu fluorogenic peroxidase substrate according to the manufacturer's instructions (Pierce Corp., Rockford, Ill.).
as §3, §4

Structure (SMILES)	IC50 [1] [nM]	IC50 [2] [nM]	IC50 ([1]; Homo sapiens, SKNBE2) [nM]	IC50 ([2]; Homo sapiens, SKNBE2) [nM]
Cc1ncc(-c2ccc(Nc3cc(F)cc4c3nc(N3CCCC3)n4C)cc2)o1 [Compound 90]	1100	> 3000	–	–
COc1cc(Nc2nccc3c2nc(CCC(F)(F)F)n3C)ccc1-c1cnc(C)o1 [Compound 91]	1440	66100	–	–
COc1cc(Nc2nc(C)cc3c2nc(C2CCOCC2)n3C)ccc1-c1cnc(C)o1 [Compound 92]	2570	> 3000	–	–
COc1cc(Nc2nc(C3CC3)cc3c2nc(-c2ccc(F)cc2)n3C)ccc1-c1cnc(C)o1 [Compound 94]	83	> 3000	–	–
Cc1ncc(-c2ccc(Nc3cc(C(F)(F)F)cc4c3nc(C3CCOCC3)n4C)cc2)o1 [Compound 100]	2240	25100	–	–
COc1cc(Nc2cc(F)cc3c2nc(N(C)CC(C)C)n3C)ccc1-c1cnc(C)o1 [Compound 108]	132	> 10000	–	–
COc1cccc(-c2nc3c(Nc4ccc(-c5cnc(C)o5)c(F)c4)nccc3n2C)c1 [Compound 109]	145	2820	–	–
Cc1ncoc1-c1ccc(Nc2cc(C#N)cc3c2nc(-c2ccc(F)cc2)n3C)cn1 [Compound 110]	83	> 3000	–	–
Cc1ncoc1-c1ccc(Nc2cc(F)cc3c2nc(-c2ccccc2Cl)n3C)cn1 [Compound 114]	72	> 3000	–	–
Cc1ncoc1-c1ccc(Nc2nccc3c2nc(-c2ccccc2Cl)n3C)cn1 [Compound 117]	724	> 10000	–	–
COc1cc(Nc2cc(CN)cc3c2nc(-c2ccc(F)cc2)n3C)ccc1-c1ocnc1C [Compound 120]	–	–	324	> 3000
COc1cc(Nc2cc(C(F)(F)F)cn3c(C)c(C)nc23)ccc1-c1ocnc1C [Compound 142]	468	> 10000	–	–
COc1cc(Nc2cc(C(F)(F)F)cn3cc(C(=O)N(C)C)nc23)ccc1-c1ocnc1C [Compound 143]	9770	> 30000	–	–
COc1cc(Nc2cccn3c(C)c(C)nc23)ccc1-c1ocnc1C [Compound 144]	468	13800	–	–
COc1cc(Nc2cc(C#N)cn3cc(-c4ccc(F)cc4C)nc23)ccc1-c1ocnc1C [Compound 146]	355	> 30000	–	–
COc1cc(Nc2cc(CN)cn3cc(-c4ccc(F)cc4C)nc23)ccc1-c1ocnc1C [Compound 150]	437	8130	–	–
COc1cc(Nc2nc(C3CC3)cn3cc(C)nc23)ccc1-c1ocnc1C [Compound 153]	1320	> 3000	–	–
Cc1ncoc1-c1ccc(Nc2cccn3cc(C4CCOCC4)nc23)cn1 [Compound 154]	2040	> 3000	–	–
COc1cc(Nc2cccn3cc(C4CCOCC4)nc23)ccc1-c1ocnc1C [Compound 155]	389	14800	–	–
Cc1ncoc1-c1ccc(Nc2cccn3cc(C4CC4)nc23)cn1 [Compound 160]	138	> 3000	–	–
Cc1ncc(-c2ccc(Nc3cccn4cc(C5CC5)nc34)cc2)o1 [Compound 166]	741	> 3000	–	–
COCCCc1c(-c2ccccc2C(F)(F)F)nc2c(Nc3ccc(-c4cnc(C)o4)c(OC)c3)cccn12 [Compound 169]	–	–	45	> 3000
C=C(C)c1c(-c2ccc(F)cc2)nc2c(Nc3ccc(-c4cnc(C)o4)cc3)cccn12 [Compound 177]	–	–	105	> 3000
Cc1ncc(-c2ccc(Nc3cc(F)cn4cc(CC(C)C)nc34)cc2)o1 [Compound 178]	85	> 3000	–	–
Cc1nc2c(Nc3ccc(-c4cnc(C(C)C)o4)cc3)cccn2c1C [Compound 180]	> 3000	> 3000	–	–
COc1cc(Nc2cc(C(F)(F)F)nn3cc(C)nc23)ccc1-c1ocnc1C [Compound 196]	676	> 3000	–	–
COc1cc(Nc2cncc3c2nc(-c2ccc(F)cc2)n3C)ccc1-c1ocnc1C [Compound 199]	240	> 30000	–	–
Cc1ncc(-c2ccc(Nc3cncc4c3nc(-c3ccc(F)cc3)n4C)cn2)o1 [Compound 200]	295	> 3000	–	–

Further lines, results first:

IC50 [1] [nM]	IC50 [2] [nM]	IC50 ([1]; Homo sapiens, SKNBE2) [nM]	IC50 ([2]; Homo sapiens, SKNBE2) [nM]	Structure (SMILES)
71	> 3000	–	–	COc1cccc(-c2nc3c(Nc4ccc(-c5cnc(C)o5)cc4)nc(C)cc3n2C)c1 [Compound 98]
24	> 3000	–	–	COc1cc(Nc2nc(C)cc3c2nc(-c2cccc(OC(C)C)c2)n3C)ccc1-c1cnc(C)o1 [Compound 102]
36	> 3000	–	–	COc1cccc(-c2nc3c(Nc4ccc(-c5cnc(C)o5)nc4)cc(C#N)cc3n2C)c1 [Compound 103]
28	> 1000	–	–	Cc1ncoc1-c1ccc(Nc2cccc3c2nc(-c2cccc(Cl)c2)n3C(C)C)cn1 [Compound 112]
20	> 3000	–	–	COc1cccc(-c2nc3c(Nc4ccc(-c5ocnc5C)c(OC)c4)nc(C)cc3n2C)c1 [Compound 121]
38	> 3000	–	–	COc1cccc(-c2nc3c(Nc4ccc(-c5ocnc5C)c(OC)c4)cc(C#N)cc3n2C)c1 [Compound 122]
26	> 1000	–	–	COc1cc(Nc2cc(C#N)cc3c2nc(-c2ccc(F)cc2)n3C)ccc1-c1ocnc1C [Compound 123]
51	> 3000	–	–	Cc1ncoc1-c1ccc(Nc2cccc3c2nc(-c2ccc(F)cc2)n3C)cc1 [Compound 124]
47	> 3000	–	–	COc1cc(Nc2cc(C)cn3cc(-c4ccc(F)cc4C)nc23)ccc1-c1ocnc1C [Compound 149]
23	> 3000	–	–	COc1cccc(-c2nc3c(Nc4ccc(-c5ocnc5C)cc4)cccn3c2C)c1 [Compound 152]
41	> 3000	–	–	Cc1ncc(-c2ccc(Nc3cc(F)cn4cc(-c5ccc(F)cc5C)nc34)cc2)o1 [Compound 176]
13	> 3000	–	–	COc1cc(Nc2cc(C3CC3)nc3c2nc(-c2ccc(F)cc2)n3C)ccc1-c1cnc(C)o1 [Compound 192]
19	> 3000	–	–	COc1cc(Nc2cc(C)nc3c2nc(-c2ccc(F)cc2)n3C)ccc1-c1cnc(C)o1 [Compound 193]
